In patent publication US9695198B2, “Factor IXa inhibitors” (MERCK SHARP & DOHME CORP., priority 2012, dated 2017):
Like-named read-outs stand apart in the source and are kept apart here.

Target: Factor IXa (Homo sapiens, UniProt P00740)
Experiment: Determination of inhibitory activity against Factor IXa (cleavage of fluorescent peptide CH3SO2-D-CHG-Gly-Arg-AFC)
Format: biochemical
Settings: low enzyme format, read-out: FIXa Low Enzyme
Experimental: Determination of Inhibitory Activity Against Factor IXa
Formation of a clot to stem bleeding at a site of blood vessel injury involves the coordinated activity of a group of plasma proteins that initiate and propagate fibrin formation and subsequently protect fibrin from premature degradation. Factor IX is a key component of the plasma system that forms a fibrin clot at a site of vascular injury. The activity of Factor IXa is measured by monitoring the cleavage of the fluorescent peptide, CH3SO2-D-CHG-Gly-Arg-AFC.AcOH (“CHG” is cyclohexyl-glycine and “AFC” is trifluoro aminomethyl coumarin). Factor IXa cleaves the amide bond between Arg and AFC, thereby releasing the AFC fluorophore. The free AFC can be detected with a fluorescence detector at an excitation wavelength of 405 nm and emission wavelength of 510 nm.

Factor IXa, sequence (P00740 227-461 limits assumed): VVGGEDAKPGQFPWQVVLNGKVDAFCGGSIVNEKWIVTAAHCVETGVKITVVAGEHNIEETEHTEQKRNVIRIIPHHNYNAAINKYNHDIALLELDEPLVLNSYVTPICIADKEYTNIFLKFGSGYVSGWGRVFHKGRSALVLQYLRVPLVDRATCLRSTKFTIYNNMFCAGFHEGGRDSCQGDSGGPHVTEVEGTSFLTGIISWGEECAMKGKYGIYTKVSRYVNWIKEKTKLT
Factor IXa, sequence (P00740 47-191 partner limits assumed): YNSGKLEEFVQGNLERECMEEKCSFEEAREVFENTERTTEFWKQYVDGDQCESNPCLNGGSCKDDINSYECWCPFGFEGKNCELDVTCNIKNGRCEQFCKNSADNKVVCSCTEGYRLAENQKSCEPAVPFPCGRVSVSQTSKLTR

IC50 (Factor IXa Inhibition table) | IC50 (table of additional examples) | SMILES
19.3 nM |  | CC(O)(c1cccc(N2CCO[C@H]([C@@H](O)c3nc(=O)c4c(ccc5c(N)nsc54)[nH]3)C2=O)n1)C(F)(F)F (stereo partly drawn) [Example 26, (2R)-2-((S)-(3-Amino-9-oxo-6,9-dihydroisothiazolo[5,4-f]quinazolin-7-yl)(hydroxy)methyl)-4-(6-(1,1,1-trifluoro-2-hydroxypropan-2-yl)pyridin-2-yl)morpholin-3-one]
 | 27.6 nM | Nc1nccc2cc3[nH]c([C@H](O)[C@H]4OCCN(c5ccn(-c6ccncc6)n5)C4=O)nc(=O)c3cc12 [Example 28, (R)-2-((S)-(6-Amino-4-oxo-1,4-dihydropyrido[3,4-g]quinazolin-2-yl)(hydroxy)methyl)-4-(1-(pyridin-4-yl)-1H-pyrazol-3-yl)morpholin-3-one]
